This note sets out measurements from ChEMBL document CHEMBL1201862, “PubChem BioAssay data set” (2004).

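Assay format: 96-well plates, 48-hour exposure. GI50: concentration for 50% inhibition of growth.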 Active and inactive are the calls of the source. Rule as the data show it: active = GI50 up to about 1.1 µM and inactive = higher.

Assay in all cases: NCI tumour cell line growth inhibition, 48 h
Assay [1] concerns A498.
Assay [2] has as its system BT-549.
For assay [3], the system named is HCC 2998.
Assay [4] relates to HOP-92.
The subject of assay [5] is LOX IMVI.
The subject of assay [6] is M14.
For assay [7], the system named is MDA-N.
The test system of assay [8] is NCI-H460.
The subject of assay [9] is NCI-H522.
The subject of assay [10] is OVCAR-3.
The subject of assay [11] is OVCAR-4.
Assay [12] relates to RPMI-8226.
Assay [13] concerns RXF 393.
Assay [14] relates to SF-295.
Assay [15] concerns SK-MEL-5.
Assay [16] concerns SK-OV-3.
Assay [17] has as its system SW-620.
Assay [18] concerns T47D.
In assay [19] the test system is UACC-257.
In assay [20] the test system is HL-60.

For the compound `C=CCSC1=N/C(=C\c2cccs2)C(=O)N1CC=C`, the GI50 in [1] was 26.4 µM (inactive); in [2], 44.4 µM (inactive); in assay [3], 58.9 µM (inactive); in [4], 12.9 µM (inactive); in assay [5], 46.1 µM (inactive); in [6], 54.5 µM (inactive). Also, the GI50 in assay [7] was 42.9 µM (inactive); in [8], 61.9 µM (inactive); in [9] it was 49.4 µM (inactive); in [10] it was > 100 µM (inactive); in assay [11], 38.6 µM (inactive); in assay [12] it was 21.9 µM (inactive). The GI50 in assay [13] was 16.7 µM (inactive); in assay [14] it was 81.5 µM (inactive); in assay [15], 32.3 µM (inactive); in assay [16], > 100 µM (inactive); in assay [17] it was 82.2 µM (inactive); in assay [18], 15.4 µM (inactive). Besides, the GI50 in assay [19] is 49.8 µM (inactive).

For `COC12C=CC(CC1)C(C)(C)C2OS(C)(=O)=O` (centres undefined), the GI50 in [1] was 97.1 µM (inactive); in assay [2], > 100 µM (inactive); in [3] it was > 100 µM (inactive); in assay [20], > 100 µM (inactive); in assay [4] it was > 100 µM (inactive); in assay [6] it was > 100 µM (inactive). Further, the GI50 in [7], in assay [8], in assay [9], in assay [10], in assay [11] and in assay [12] was > 100 µM (inactive) in each case. The GI50 in [13], in assay [14], in [15], in assay [16], in [17] and in assay [18] was > 100 µM (inactive) in each case. Moreover, in assay [19], the GI50 was > 100 µM (inactive).

`O=C1Nc2cc([N+](=O)[O-])ccc2N/C1=C/C(=O)c1ccc(Cl)cc1`: the GI50 in assay [1] was 19.7 µM (inactive); in assay [2], 5.27 µM (inactive); in assay [3] it was 23.6 µM (inactive); in assay [20] it was 19.8 µM (inactive); in [4], 16 µM (inactive); in assay [5], 11.3 µM (inactive). The GI50 in assay [6] was 12.9 µM (inactive); in assay [7], 24.3 µM (inactive); in assay [8], 8.34 µM (inactive); in assay [10], 20.1 µM (inactive); in assay [11] it was 20.4 µM (inactive); in assay [12], 10.9 µM (inactive). Also, the GI50 in [13] was 3.39 µM (inactive); in assay [14], 13.3 µM (inactive); in assay [15], 15.9 µM (inactive); in assay [16], 19.4 µM (inactive); in assay [17] it was 13.9 µM (inactive); in [18], 13.5 µM (inactive). Moreover, the GI50 in assay [19] was 27.5 µM (inactive).

In the case of `CC(C)(CC(O)C#N)/[N+]([O-])=[N+](\[O-])C(C)(C)CC(O)C#N` (centres undefined), the GI50 in [1] was > 100 µM (inactive); in [2], 20.6 µM (inactive); in assay [3], 17.2 µM (inactive); in [4] it was 18.2 µM (inactive); in assay [5], 17.6 µM (inactive); in [6] it was 16 µM (inactive). The GI50 is 20.7 µM (inactive) in [7]; 36.1 µM (inactive) in [8]; 13.8 µM (inactive) in [9]; 22.5 µM (inactive) in assay [10]; 24.1 µM (inactive) in [11]; 19.4 µM (inactive) in assay [12]. Further, the GI50 in assay [13] was 15.9 µM (inactive); in assay [14], 35.7 µM (inactive); in assay [15], 29.2 µM (inactive); in [16], 29.8 µM (inactive); in assay [17] it was 12 µM (inactive); in [18] it was 27.5 µM (inactive). For the same compound, the GI50 in assay [19] is 20.4 µM (inactive).

On to `CCCN1CCC(=O)N(CCC(F)(F)C(F)(F)C(F)(F)C(F)(F)C(F)(F)C(F)(F)F)C1=S`, for which the GI50 in [1] was > 100 µM (inactive); in assay [2], > 100 µM (inactive); in assay [3] it was 94.6 µM (inactive); in assay [20], > 100 µM (inactive); in assay [4], > 100 µM (inactive); in assay [6], > 100 µM (inactive). Also, the GI50 was > 100 µM (inactive) in assay [7]; > 100 µM (inactive) in assay [8]; > 100 µM (inactive) in assay [9]; > 100 µM (inactive) in [10]; > 100 µM (inactive) in [11]; 99.5 µM (inactive) in [13]. Besides, the GI50 in assay [14], in [15], in assay [16], in [17], in assay [18] and in [19] was > 100 µM (inactive) each time.

As for `c1csc(-c2cc(-c3ccsc3)cs2)c1`, the GI50 in assay [1] was > 100 µM (inactive); in [2] it was > 100 µM (inactive); in [3], > 100 µM (inactive); in assay [20], 74.1 µM (inactive); in [4], > 100 µM (inactive); in assay [5], > 100 µM (inactive). The GI50 in [6] was > 100 µM (inactive); in assay [7], > 100 µM (inactive); in assay [8], > 100 µM (inactive); in [10], 27.2 µM (inactive); in assay [11], 40.6 µM (inactive); in assay [12], > 100 µM (inactive). For the same compound, the GI50 in assay [13] is 20.6 µM (inactive); in assay [14], 32.1 µM (inactive); in assay [15], > 100 µM (inactive); in assay [16] it was 33.8 µM (inactive); in assay [17], > 100 µM (inactive); in [18], > 100 µM (inactive). For the same compound, the GI50 in [19] was > 100 µM (inactive).

Consider `CCOC(=O)c1cc2c3c(c(C(C)=O)c(OC)c2[nH]1)N(C(=O)CC)CC3`, for which the GI50 in assay [1] is 36.9 µM (inactive); in assay [2], 17.3 µM (inactive); in assay [3] it was 23.4 µM (inactive); in [20], 6.4 µM (inactive); in assay [4], 13.5 µM (inactive); in assay [5] it was 14.6 µM (inactive). Also, the GI50 in assay [6] was 16.8 µM (inactive); in assay [7], 16.8 µM (inactive); in assay [8] it was 16.7 µM (inactive); in assay [10] it was 14.5 µM (inactive); in [11], 21.5 µM (inactive); in assay [12], 5.13 µM (inactive). Further, the GI50 in assay [13] was 19.6 µM (inactive); in assay [14], 19.3 µM (inactive); in assay [15] it was 10.9 µM (inactive); in assay [16], 50.1 µM (inactive); in assay [17] it was 24.9 µM (inactive); in assay [18] it was 4.93 µM (inactive). The GI50 in [19] is 19.4 µM (inactive).

As to `O=C1C(CN2CCCCC2)CCC1CN1CCCCC1` (centres undefined), the GI50 in [1] is 15.2 µM (inactive); in assay [2], 19.1 µM (inactive); in assay [3], > 44.7 µM (inactive); in [20] it was 1.5 µM (inactive); in [4], 23.2 µM (inactive); in assay [5], 16 µM (inactive). In addition, the GI50 in assay [6] was 15.5 µM (inactive); in [7], 15 µM (inactive); in [8], > 100 µM (inactive); in assay [9], 5.35 µM (inactive); in assay [10], 17.1 µM (inactive); in assay [12], 9.91 µM (inactive). The GI50 is 14.8 µM (inactive) in assay [13]; > 46.5 µM (inactive) in assay [14]; 43.9 µM (inactive) in assay [15]; > 100 µM (inactive) in [16]; 6.37 µM (inactive) in [17]; 13.5 µM (inactive) in assay [18]. For the same compound, the GI50 in assay [19] was 30.3 µM (inactive).

On to `CSc1nc(=O)c2nc(-c3cccs3)c(-c3cccs3)nc2n1C`, for which the GI50 in assay [1] is 32.3 µM (inactive); in assay [2], 34.5 µM (inactive); in assay [3] it was > 100 µM (inactive); in assay [20], 96.6 µM (inactive); in [4], 28.8 µM (inactive); in [5], 57.5 µM (inactive). For the same compound, the GI50 in assay [6] was > 100 µM (inactive); in assay [7], > 100 µM (inactive); in [8] it was > 100 µM (inactive); in [9], 31 µM (inactive); in [11], 30.7 µM (inactive); in assay [12] it was > 100 µM (inactive). Further, the GI50 in assay [13] was 18.7 µM (inactive); in assay [14], 32.7 µM (inactive); in assay [15], > 100 µM (inactive); in assay [16], 26.8 µM (inactive); in [17], > 100 µM (inactive); in assay [18], 18.7 µM (inactive). Besides, the GI50 in assay [19] is > 100 µM (inactive).

For the compound `COC(C)(C)/C=C/c1[nH]c2ccccc2c1CC(=O)NCCc1cn(C(c2ccccc2)(c2ccccc2)c2ccccc2)cn1`, the GI50 is 3.25 µM (inactive) in assay [1]; 7.87 µM (inactive) in assay [2]; 0.0272 µM (active) in [3]; 2.92 µM (inactive) in assay [20]; 5.33 µM (inactive) in assay [4]; 4.82 µM (inactive) in assay [5]. The GI50 is 4.53 µM (inactive) in assay [6]; 4.33 µM (inactive) in assay [7]; 2.62 µM (inactive) in assay [8]; 3.66 µM (inactive) in assay [9]; 4.92 µM (inactive) in [10]; 4.9 µM (inactive) in [11]. The GI50 in [12] was 2.39 µM (inactive); in [13], 7.16 µM (inactive); in assay [14], 4.7 µM (inactive); in assay [15], 2.92 µM (inactive); in [17] it was 4.23 µM (inactive); in assay [18] it was 2.71 µM (inactive). Further, the GI50 in [19] is 4.02 µM (inactive).
